Measurements taken from patent publication US9695155B2, “Herbicidal substituted pyrimidinyloxy benzene compounds” (E. I. DU PONT DE NEMOURS AND COMPANY, priority 2013, dated 2017).

Key:
johnsongrass = experiment: Test F preemergence; format: in vivo, Sorghum halepense; conditions: 21 days, scale 0 to 100
Method in brief: (§1)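 Seeds were sown in a loam soil–sand blend and treated preemergence with compounds formulated in a non-phytotoxic solvent mixture containing surfactant. Pots were kept in a greenhouse for 21 days, then visually rated against untreated controls on a 0–100 scale (0 = no effect, 100 = complete control).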

field poppy = experiment: Test D preemergence; format: in vivo, Papaver rhoeas; conditions: Papaver rhoeas, pre-emergence
Description: (§2) Seeds of plant species selected from bluegrass (annual bluegrass, Poa annua), blackgrass (Alopecurus myosuroides), canarygrass (littleseed canarygrass, Phalaris minor), chickweed (common chickweed, Stellaria media), galium (catchweed bedstraw, Galium aparine), bromegrass, downy (downy bromegrass, Bromus tectorum), field poppy (Papaver rhoeas), field violet (Viola arvensis), green foxtail (Setaria viridis), deadnettle (henbit deadnettle, Lamium amplexicaule), Italian ryegrass (Lolium multiflorum), kochia (Kochia scoparia), lambsquarters (Chenopodium album), oilseed rape (Brassica napus), pigweed (Amaranthus retroflexus), chamomile (scentless chamomile, Matricaria inodora), Russian thistle (Salsola kali), speedwell (bird's-eye speedwell, Veronica persica), spring barley (Hordeum vulgare), spring wheat (Triticum aestivum), wild buckwheat (Polygonum convolvulus), wild mustard (Sinapis arvensis), wild oat (Avena fatua), wild radish (Raphanus raphanistrum), windgrass (Apera spica-venti), winter barley (Hordeum vulgare), and winter wheat (Triticum aestivum) were planted into a silt loam soil and treated preemergence with test chemicals formulated in a non-phytotoxic solvent mixture which included a surfactant.
(§3) At the same time, these species were planted in pots containing Redi-Earth® planting medium (Scotts Company, 14111 Scottslawn Road, Marysville, Ohio 43041) comprising spaghnum peat moss, vermiculite, wetting agent and starter nutrients and treated with postemergence applications of the test chemicals formulated in the same manner. Plants ranged in height from 2 to 18 cm (1- to 4-leaf stage). Treated plants and controls were maintained in a controlled growth environment for 7 to 21 days after which time all species were compared to controls and visually evaluated. Plant response ratings, summarized in Table D, are based on a scale of 0 to 100 where 0 is no effect and 100 is complete control. A dash (-) response means no test result.

wild poinsettia = experiment: Test F preemergence; format: in vivo, Euphorbia heterophylla; conditions: 21 days, scale 0 to 100
Method in brief: as §1

lambsquarters = experiment: Test D preemergence; format: in vivo, Chenopodium album; conditions: Chenopodium album, pre-emergence
Description: as §2, §3

mallow = experiment: Test F preemergence; format: in vivo, Malva sylvestris; conditions: 21 days, scale 0 to 100
Method in brief: as §1

pigweed = experiment: Test F preemergence; format: in vivo, Amaranthus retroflexus; conditions: 21 days, scale 0 to 100
Method in brief: as §1

foxtail, green = experiment: Test F preemergence; format: in vivo, Setaria viridis; conditions: 21 days, scale 0 to 100
Method in brief: as §1

wild radish = experiment: Test D postemergence; format: in vivo, Raphanus raphanistrum; conditions: Raphanus raphanistrum, post-emergence
Description: as §2, §3

deadnettle = experiment: Test D postemergence; format: in vivo, Lamium amplexicaule; conditions: Lamium amplexicaule, post-emergence
Method in brief: (§4)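 Plant response is a visual score from 0 (no effect) to 100 (complete control) relative to controls. Plants were kept in a controlled growth environment for 7 to 21 days after spraying. Preemergence treatments went onto silt loam soil; postemergence ones onto 1- to 4-leaf seedlings.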

oilseed rape = experiment: Test D postemergence; format: in vivo, Brassica napus; conditions: Brassica napus, post-emergence
Method in brief: as §4

bluegrass = experiment: Test D postemergence; format: in vivo, Poa annua; conditions: Poa annua, post-emergence, Postemergence, scale 0 to 100 (0 no effect, 100 complete control), read-out: Plant response rating, Bluegrass
Description: as §2, §3

signalgrass = experiment: Test F preemergence; format: in vivo, Brachiaria platyphylla; conditions: 21 days, scale 0 to 100
Method in brief: as §1

sowthistle = experiment: Test F preemergence; format: in vivo, Sonchus oleraceous; conditions: 21 days, scale 0 to 100
Method in brief: as §1

mustard, black = experiment: Test F preemergence; format: in vivo, Brassica nigra; conditions: 21 days, scale 0 to 100
Description: Seeds of plant species selected from bermudagrass (Cynodon dactylon), surinam grass (Brachiaria decumbens), large (Lg) crabgrass (Digitaria sanguinalis), crabgrass, naked (naked crabgrass, Digitaria nuda), foxtail, green (green foxtail, Setaria viridis), johnsongrass (Sorghum halepense), kochia (Kochia scoparia), morningglory (pitted morningglory, Ipomoea lacunosa), nutsedge, purple (purple nutsedge, Cyperus rotundus), ragweed (common ragweed, Ambrosia elatior), mustard, black (black mustard, Brassica nigra), guineagrass (Panicum maximum), dallisgrass (Paspalum dilatatum), barnyardgrass (Echinochloa crus-galli), sandbur (southern sandbur, Cenchrus echinatus), sowthistle (common sowthistle, Sonchus oleraceous), Italian ryegrass (Lolium multiflorum), signalgrass (broadleaf signalgrass, Brachiaria platyphylla), dayflower (Virginia (VA) dayflower, Commelina virginica), bluegrass (annual bluegrass, Poa annua), quackgrass (Elytrigia repens), mallow (common mallow, Malva sylvestris), buckwheat, wild (wild buckwheat, Polygonum convolvulus), leafy spurge (Euphorbia esula), chickweed (common chickweed, Stellaria media), wild poinsettia (Euphorbia heterophylla), and pigweed (Amaranthus retroflexus) were planted into a blend of loam soil and sand and treated preemergence with test chemicals formulated in a non-phytotoxic solvent mixture which included a surfactant.
Treated plants and controls were maintained in a greenhouse for 21 days, after which time all species were compared to controls and visually evaluated. Plant response ratings, summarized in Table F, are based on a scale of 0 to 100 where 0 is no effect and 100 is complete control. A dash (-) response means no test result.

green foxtail = experiment: Test D preemergence; format: in vivo, Setaria viridis; conditions: Setaria viridis, pre-emergence
Method in brief: as §4

## N#Cc1cccc(Oc2ncc(Cl)cn2)c1-n1cc(OCC(F)(F)F)cn1 [Compound 274, 3-[(5-chloro-2-pyrimidinyl)oxy]-2-[4-(2,2,2-trifluoroethoxy)-1H-pyrazol-1-yl]benzonitrile]
johnsongrass; 16 g ai/ha
  Plant response rating, Johnsongrass: 65
johnsongrass; 31 g ai/ha
  Plant response rating, Johnsongrass: 70
johnsongrass; 62 g ai/ha
  Plant response rating, Johnsongrass: 100
johnsongrass; 125 g ai/ha
  Plant response rating, Johnsongrass: 100
johnsongrass; 250 g ai/ha
  Plant response rating, Johnsongrass: 100
Field poppy; 16 g ai/ha, scale 0 (no effect) to 100 (complete control), read-out: Plant response rating, Field Poppy
  pest or weed control at 16 g/ha: 75%
Field poppy; 31 g ai/ha, scale 0-100, read-out: Plant response rating, Field Poppy
  pest or weed control at 31 g/ha: 100%
Field poppy; 62 g ai/ha, scale 0-100, read-out: Plant response rating, Field Poppy
  pest or weed control at 62 g/ha: 100%
Field poppy; 125 g ai/ha, scale 0-100, read-out: Plant response rating, Field Poppy
  pest or weed control at 125 g/ha: 100%
Wild poinsettia; 16 g ai/ha
  Plant response rating, Poinsettia, Wild: 5
Wild poinsettia; 31 g ai/ha
  Plant response rating, Poinsettia, Wild: 10
Wild poinsettia; 62 g ai/ha
  Plant response rating, Poinsettia, Wild: 70
Wild poinsettia; 125 g ai/ha
  Plant response rating, Poinsettia, Wild: 95
Wild poinsettia; 250 g ai/ha
  Plant response rating, Poinsettia, Wild: 100
lambsquarters; 16 g ai/ha, scale 0 (no effect) to 100 (complete control), read-out: Plant response rating, Lambsquarters
  pest or weed control at 16 g/ha: 20%
lambsquarters; 31 g ai/ha, scale 0-100, read-out: Plant response rating, Lambsquarters
  pest or weed control at 31 g/ha: 90%
lambsquarters; 62 g ai/ha, scale 0-100, read-out: Plant response rating, Lambsquarters
  pest or weed control at 62 g/ha: 100%
lambsquarters; 125 g ai/ha, scale 0-100, read-out: Plant response rating, Lambsquarters
  pest or weed control at 125 g/ha: 100%
mallow; 16 g ai/ha
  Plant response rating, Mallow: 98
mallow; 31 g ai/ha
  Plant response rating, Mallow: 98
mallow; 62 g ai/ha
  Plant response rating, Mallow: 98
mallow; 125 g ai/ha
  Plant response rating, Mallow: 100
mallow; 250 g ai/ha
  Plant response rating, Mallow: 100
pigweed; 16 g ai/ha
  Plant response rating, Pigweed: 100
pigweed; 31 g ai/ha
  Plant response rating, Pigweed: 100
pigweed; 62 g ai/ha
  Plant response rating, Pigweed: 100
pigweed; 125 g ai/ha
  Plant response rating, Pigweed: 100
pigweed; 250 g ai/ha
  Plant response rating, Pigweed: 100
foxtail, green; 16 g ai/ha
  Plant response rating, Foxtail, Green: 100
foxtail, green; 31 g ai/ha
  Plant response rating, Foxtail, Green: 100
foxtail, green; 62 g ai/ha
  Plant response rating, Foxtail, Green: 100
foxtail, green; 125 g ai/ha
  Plant response rating, Foxtail, Green: 100
foxtail, green; 250 g ai/ha
  Plant response rating, Foxtail, Green: 100
Wild radish; 16 g ai/ha, scale 0-100, read-out: Plant response rating, Radish, Wild
  pest or weed control at 16 g/ha: 70%
Wild radish; 31 g ai/ha, scale 0 to 100 (0 no effect, 100 complete control), read-out: Plant response rating, Radish, Wild
  pest or weed control at 31 g/ha: 70%
Wild radish; 62 g ai/ha, scale 0 to 100 (0 no effect, 100 complete control), read-out: Plant response rating, Radish, Wild
  pest or weed control at 62 g/ha: 70%
Wild radish; 125 g ai/ha, scale 0 to 100 (0 no effect, 100 complete control), read-out: Plant response rating, Radish, Wild
  pest or weed control at 125 g/ha: 90%
deadnettle; 16 g ai/ha, scale 0-100, read-out: Plant response rating, Deadnettle
  pest or weed control at 16 g/ha: 50%
deadnettle; 31 g ai/ha, scale 0 to 100 (0 no effect, 100 complete control), read-out: Plant response rating, Deadnettle
  pest or weed control at 31 g/ha: 45%
deadnettle; 62 g ai/ha, scale 0 to 100 (0 no effect, 100 complete control), read-out: Plant response rating, Deadnettle
  pest or weed control at 62 g/ha: 60%
deadnettle; 125 g ai/ha, scale 0 to 100 (0 no effect, 100 complete control), read-out: Plant response rating, Deadnettle
  pest or weed control at 125 g/ha: 70%
Oilseed rape; 16 g ai/ha, scale 0-100, read-out: Plant response rating, Oilseed Rape
  plant injury at 16 g/ha: 40%
Oilseed rape; 31 g ai/ha, scale 0 to 100 (0 no effect, 100 complete control), read-out: Plant response rating, Oilseed Rape
  plant injury at 31 g/ha: 55%
Oilseed rape; 62 g ai/ha, scale 0 to 100 (0 no effect, 100 complete control), read-out: Plant response rating, Oilseed Rape
  plant injury at 62 g/ha: 65%
Oilseed rape; 125 g ai/ha, scale 0 to 100 (0 no effect, 100 complete control), read-out: Plant response rating, Oilseed Rape
  plant injury at 125 g/ha: 75%
bluegrass; 16 g ai/ha
  pest or weed control at 16 g/ha: 20%
bluegrass; 31 g ai/ha
  pest or weed control at 31 g/ha: 25%
bluegrass; 62 g ai/ha
  pest or weed control at 62 g/ha: 30%
bluegrass; 125 g ai/ha
  pest or weed control at 125 g/ha: 30%
signalgrass; 16 g ai/ha
  Plant response rating, Signalgrass: 75
signalgrass; 31 g ai/ha
  Plant response rating, Signalgrass: 70
signalgrass; 62 g ai/ha
  Plant response rating, Signalgrass: 100
signalgrass; 125 g ai/ha
  Plant response rating, Signalgrass: 100
signalgrass; 250 g ai/ha
  Plant response rating, Signalgrass: 100
sowthistle; 16 g ai/ha
  Plant response rating, Sowthistle: 100
sowthistle; 31 g ai/ha
  Plant response rating, Sowthistle: 100
sowthistle; 62 g ai/ha
  Plant response rating, Sowthistle: 100
sowthistle; 125 g ai/ha
  Plant response rating, Sowthistle: 100
sowthistle; 250 g ai/ha
  Plant response rating, Sowthistle: 100
mustard, black; 16 g ai/ha
  Plant response rating, Mustard, Black: 98
mustard, black; 31 g ai/ha
  Plant response rating, Mustard, Black: 100
mustard, black; 62 g ai/ha
  Plant response rating, Mustard, Black: 100
mustard, black; 125 g ai/ha
  Plant response rating, Mustard, Black: 100
mustard, black; 250 g ai/ha
  Plant response rating, Mustard, Black: 100
Green foxtail; 16 g ai/ha, scale 0 (no effect) to 100 (complete control), read-out: Plant response rating, Foxtail, Green
  pest or weed control at 16 g/ha: 15%
Green foxtail; 31 g ai/ha, scale 0-100, read-out: Plant response rating, Foxtail, Green
  pest or weed control at 31 g/ha: 75%
Green foxtail; 62 g ai/ha, scale 0-100, read-out: Plant response rating, Foxtail, Green
  pest or weed control at 62 g/ha: 100%
Green foxtail; 125 g ai/ha, scale 0-100, read-out: Plant response rating, Foxtail, Green
  pest or weed control at 125 g/ha: 100%
